# Measurements taken from PubChem BioAssay (NCI).
#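 Briefly, cells in 96-well plates were exposed to five compound concentrations for 48 h, and endpoints were estimated by linear interpolation. At the GI50, growth is halved. At the TGI there is no net growth.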
# Assays:
# Assay in all cases: DTP human tumour cell line panel, 48 h
# SF-268 CNS = tested on: SF-268 CNS
# HCC-2998 colon = tested on: HCC-2998 colon
# UACC-257 melanoma = tested on: UACC-257 melanoma
# NCI-H23 lung = tested on: NCI-H23 lung
# COLO 205 colon = tested on: COLO 205 colon
# RPMI-8226 leukemia = tested on: RPMI-8226 leukemia
# NCI/ADR-RES ovarian = tested on: NCI/ADR-RES ovarian
# CCRF-CEM leukemia = tested on: CCRF-CEM leukemia
# NCI-H522 lung = tested on: NCI-H522 lung
# 786-0 renal = tested on: 786-0 renal
# MOLT-4 leukemia = tested on: MOLT-4 leukemia
# SNB-19 CNS = tested on: SNB-19 CNS
# TK-10 renal = tested on: TK-10 renal
# MALME-3M melanoma = tested on: MALME-3M melanoma
# T-47D breast = tested on: T-47D breast
# OVCAR-3 ovarian = tested on: OVCAR-3 ovarian
# UACC-62 melanoma = tested on: UACC-62 melanoma
# OVCAR-8 ovarian = tested on: OVCAR-8 ovarian
# PC-3 prostate = tested on: PC-3 prostate
# DU-145 prostate = tested on: DU-145 prostate
# UO-31 renal = tested on: UO-31 renal
# EKVX NSCLC = tested on: EKVX NSCLC
# SK-MEL-2 melanoma = tested on: SK-MEL-2 melanoma
# MDA-MB-231 breast = tested on: MDA-MB-231 breast
# HS 578T breast = tested on: HS 578T breast
# BT-549 breast = tested on: BT-549 breast
# SF-539 CNS = tested on: SF-539 CNS
# HL-60(TB) leukemia = tested on: HL-60(TB) leukemia
# OVCAR-4 ovarian = tested on: OVCAR-4 ovarian
compound,measurement,setting,value
COc1cc(-c2ccc(NC(=O)NC3CC3)c(OC)c2)ccc1NC(=O)NC1CC1,GI50,SF-268 CNS,8.21 µM
same,TGI,SF-268 CNS,> 100 µM
same,GI50,HCC-2998 colon,28 µM
same,TGI,HCC-2998 colon,> 100 µM
same,GI50,UACC-257 melanoma,12.4 µM
same,TGI,UACC-257 melanoma,> 100 µM
same,GI50,NCI-H23 lung,> 68.5 µM
same,TGI,NCI-H23 lung,> 100 µM
same,GI50,COLO 205 colon,7.67 µM
same,TGI,COLO 205 colon,> 100 µM
same,GI50,RPMI-8226 leukemia,2.47 µM
same,TGI,RPMI-8226 leukemia,> 24.7 µM
same,GI50,NCI/ADR-RES ovarian,> 43.6 µM
same,TGI,NCI/ADR-RES ovarian,> 100 µM
same,GI50,CCRF-CEM leukemia,4.34 µM
same,TGI,CCRF-CEM leukemia,> 100 µM
same,GI50,NCI-H522 lung,4.94 µM
same,TGI,NCI-H522 lung,> 62.5 µM
same,GI50,786-0 renal,29.5 µM
same,TGI,786-0 renal,> 100 µM
same,GI50,MOLT-4 leukemia,3.33 µM
same,TGI,MOLT-4 leukemia,> 100 µM
same,GI50,SNB-19 CNS,8.87 µM
same,TGI,SNB-19 CNS,> 100 µM
same,GI50,TK-10 renal,13.9 µM
same,TGI,TK-10 renal,> 100 µM
same,GI50,MALME-3M melanoma,4.99 µM
same,TGI,MALME-3M melanoma,> 100 µM
same,GI50,T-47D breast,> 100 µM
same,TGI,T-47D breast,> 100 µM
same,GI50,OVCAR-3 ovarian,25.7 µM
same,TGI,OVCAR-3 ovarian,> 100 µM
same,GI50,UACC-62 melanoma,5.71 µM
same,TGI,UACC-62 melanoma,> 100 µM
same,GI50,OVCAR-8 ovarian,6.83 µM
same,TGI,OVCAR-8 ovarian,> 100 µM
same,GI50,PC-3 prostate,9.01 µM
same,TGI,PC-3 prostate,> 100 µM
same,GI50,DU-145 prostate,6.89 µM
same,TGI,DU-145 prostate,> 100 µM
same,GI50,UO-31 renal,5.27 µM
same,TGI,UO-31 renal,> 100 µM
same,GI50,EKVX NSCLC,> 100 µM
same,TGI,EKVX NSCLC,> 100 µM
same,GI50,SK-MEL-2 melanoma,35.5 µM
same,TGI,SK-MEL-2 melanoma,> 100 µM
same,GI50,MDA-MB-231 breast,11.6 µM
same,TGI,MDA-MB-231 breast,> 100 µM
same,TGI,HS 578T breast,> 28.6 µM
same,GI50,BT-549 breast,2.67 µM
same,TGI,BT-549 breast,27.2 µM
same,GI50,SF-539 CNS,4.86 µM
same,TGI,SF-539 CNS,99.8 µM
same,GI50,HL-60(TB) leukemia,3.75 µM
same,TGI,HL-60(TB) leukemia,> 100 µM
same,GI50,OVCAR-4 ovarian,> 100 µM
same,TGI,OVCAR-4 ovarian,> 100 µM
